Reference: patent US20250282794A1 (CURADEV PHARMA LTD, priority 2022, published 2025)
pIC50: −log10 of the molar value.

Molecular target: recombinant full length HPK-1 enzyme (Homo sapiens (Human), UniProt Q92918)
Assay: HPK-1 biochemical enzyme assay (ADP-Glo kinase inhibition)
Conditions: recombinant full length HPK-1 6.8 nM, 10 μM ATP, 12.5 μM MBP, 30 mins at 25° C.
Description: HPK-1 biochemical enzyme assay
Compound inhibitory potency was measured in an HPK-1 kinase inhibition assay. Briefly, recombinant full length HPK-1 enzyme (6.8 nM) was incubated with 10 μM ATP and 12.5 μM swine myelin basic protein (MBP) for 30 mins. at 25° C. in the presence of various concentrations of test compound or vehicle in 40 mM Tris.Cl pH7.4 buffer containing 20 mM MgCl2, 50 μM DTT and 0.1 mg/mL BSA. Reactions were quenched and reaction mixtures were then analyzed by an ADP-Glo kit which measures the formed ADP. The percent inhibition was calculated from the substrate conversion considering no enzyme control reactions for 100% inhibition and vehicle only reactions for 0% inhibition. The compounds were dissolved in DMSO and evaluated at 10 concentrations to determine an IC50 value.
In the below table A denotes an HPK-1 IC50≤10 nM, B denotes an HPK-1 IC50>10 nM but≤100 nM and C denotes an HPK-1 IC50>100 nM but≤1000 nM.

Sequence of recombinant full length HPK-1 enzyme (Q92918 whole entry, species assumed): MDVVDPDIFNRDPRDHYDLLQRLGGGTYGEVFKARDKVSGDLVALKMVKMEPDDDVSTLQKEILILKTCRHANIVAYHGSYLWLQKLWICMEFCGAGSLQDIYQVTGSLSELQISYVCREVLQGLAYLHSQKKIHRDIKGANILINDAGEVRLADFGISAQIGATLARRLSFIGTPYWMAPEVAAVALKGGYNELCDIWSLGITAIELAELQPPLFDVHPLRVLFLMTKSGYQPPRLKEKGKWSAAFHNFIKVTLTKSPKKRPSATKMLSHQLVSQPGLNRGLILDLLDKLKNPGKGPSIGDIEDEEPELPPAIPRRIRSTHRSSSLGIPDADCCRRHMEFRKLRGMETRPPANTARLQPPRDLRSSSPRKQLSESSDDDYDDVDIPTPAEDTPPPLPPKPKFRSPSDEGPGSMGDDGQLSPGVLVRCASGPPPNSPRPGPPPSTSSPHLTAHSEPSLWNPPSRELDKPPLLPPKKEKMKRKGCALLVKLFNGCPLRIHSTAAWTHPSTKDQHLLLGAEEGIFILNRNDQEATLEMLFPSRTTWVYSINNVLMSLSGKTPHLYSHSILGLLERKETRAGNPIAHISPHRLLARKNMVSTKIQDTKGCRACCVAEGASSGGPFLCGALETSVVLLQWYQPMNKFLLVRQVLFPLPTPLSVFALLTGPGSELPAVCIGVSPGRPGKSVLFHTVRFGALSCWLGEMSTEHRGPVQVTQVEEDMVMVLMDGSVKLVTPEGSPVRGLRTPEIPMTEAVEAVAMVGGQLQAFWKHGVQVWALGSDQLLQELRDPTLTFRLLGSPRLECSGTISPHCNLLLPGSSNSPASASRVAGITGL

Q: With Cc1c(Nc2cc[nH]c(=O)c2C(=O)Nc2ccc(N3CCC(C4CC4)CC3)cc2)cnc2c1NCCO2 [Example 411, N-(4-(4-cyclopropylpiperidin-1-yl)phenyl)-4-((8-methyl-2,3-dihydro-1H-pyrido[2,3-b][1,4]oxazin-7-yl)amino)-2-oxo-1,2-dihydropyridine-3-carboxamide] as the compound, how does the pIC50 read?
A: 7.00 to 8.00

Q: How did the pIC50 turn out when Cc1c(Nc2cc[nH]c(=O)c2C(=O)Nc2ccc3c(c2)CN(C)CC3)cnc2c1NCCO2 [Example 163, N-(2-Methyl-1,2,3,4-tetrahydroisoquinolin-7-yl)-4-((8-methyl-2,3-dihydro-1H-pyrido[2,3-b][1,4]oxazin-7-yl)amino)-2-oxo-1,2-dihydropyridine-3-carboxamide] was run?
A: 7.00 to 8.00

Q: With Cc1c(Nc2cc[nH]c(=O)c2C(=O)Nc2ccc(N3CCN(C4CCN(C)CC4)CC3)cc2)cnc2c1NCCO2 [Example 292, 4-((8-methyl-2,3-dihydro-1H-pyrido[2,3-b][1,4]oxazin-7-yl)amino)-N-(4-(4-(1-methylpiperidin-4-yl)piperazin-1-yl)phenyl)-2-oxo-1,2-dihydropyridine-3-carboxamide] as the compound, how does the pIC50 read?
A: ≥ 8.00

Q: With Cc1c(Nc2cc[nH]c(=O)c2C(=O)Nc2ccc(N3CCC(O)C3)cc2)cnc2c1NCCO2 (stereo not shown) [Example 398, N-(4-(3-hydroxypyrrolidin-1-yl)phenyl)-4-((8-methyl-2,3-dihydro-1H-pyrido[2,3-b][1,4]oxazin-7-yl)amino)-2-oxo-1,2-dihydropyridine-3-carboxamide] as the compound, how does the pIC50 read?
A: 7.00 to 8.00

Q: Cc1c(Nc2cc[nH]c(=O)c2C(=O)Nc2ccc(N3CCN4CCOC[C@H]4C3)cc2)cnc2c1NCCO2 [Example 323, (R)-N-(4-(hexahydropyrazino[2,1-c][1,4]oxazin-8(1H)-yl)phenyl)-4-((8-methyl-2,3-dihydro-1H-pyrido[2,3-b][1,4]oxazin-7-yl)amino)-2-oxo-1,2-dihydropyridine-3-carboxamide] was tested. Which pIC50 did it give?
A: 7.00 to 8.00

Q: With Cc1c(Nc2cc[nH]c(=O)c2C(=O)Nc2ccc(N3CCN(c4ncn(C)n4)CC3)cc2)cnc2c1NCCO2 [Example 339, N-(4-(4-(1-methyl-1H-1,2,4-triazol-3-yl)piperazin-1-yl)phenyl)-4-((8-methyl-2,3-dihydro-1H-pyrido[2,3-b][1,4]oxazin-7-yl)amino)-2-oxo-1,2-dihydropyridine-3-carboxamide] as the compound, how does the pIC50 read?
A: ≥ 8.00

Q: Cc1c(Nc2cc[nH]c(=O)c2C(=O)Nc2ccc(N3CCN(c4nccs4)CC3)cc2)cnc2c1NCCO2 [Example 371, 4-((8-Methyl-2,3-dihydro-1H-pyrido[2,3-b][1,4]oxazin-7-yl)amino)-2-oxo-N-(4-(4-(thiazol-2-yl)piperazin-1-yl)phenyl)-1,2-dihydropyridine-3-carboxamide] was tested. Which pIC50 did it give?
A: 7.00 to 8.00

Q: With Cc1c(Nc2cc[nH]c(=O)c2C(=O)Nc2ccc(N3CCN(C(C)C)CC3)cc2)cnc2c1NCC(C)O2 (stereo not shown) [Example 405, 4-((3,8-dimethyl-2,3-dihydro-1H-pyrido[2,3-b][1,4]oxazin-7-yl)amino)-N-(4-(4-isopropylpiperazin-1-yl)phenyl)-2-oxo-1,2-dihydropyridine-3-carboxamide] as the compound, how does the pIC50 read?
A: 7.00 to 8.00

Q: With COc1c(Nc2cc[nH]c(=O)c2C(=O)Nc2ccc(N3CCN(C)CC3)cc2)cnc2c1NCCO2 [Example 132, 4-((8-Methoxy-2,3-dihydro-1H-pyrido[2,3-b][1,4]oxazin-7-yl)amino)-N-(4-(4-methylpiperazin-1-yl)phenyl)-2-oxo-1,2-dihydropyridine-3-carboxamide] as the compound, how does the pIC50 read?
A: 7.00 to 8.00

Q: How did the pIC50 turn out when Cc1c(Nc2cc[nH]c(=O)c2C(=O)Nc2ccc(C3CCN(C)CC3)cc2)cnc2c1NCCO2 [Example 97, 4-((8-methyl-2,3-dihydro-1H-pyrido[2,3-b][1,4]oxazin-7-yl)amino)-N-(4-(1-methylpiperidin-4-yl)phenyl)-2-oxo-1,2-dihydropyridine-3-carboxamide] was run?
A: ≥ 8.00

Q: Cc1c(Nc2cc[nH]c(=O)c2C(=O)Nc2ccc(C3CC(=O)N(C)C3)cc2)cnc2c1NCCO2 (stereo not shown) [Example 184, 4-((8-methyl-2,3-dihydro-1H-pyrido[2,3-b][1,4]oxazin-7-yl)amino)-N-(4-(1-methyl-5-oxopyrrolidin-3-yl)phenyl)-2-oxo-1,2-dihydropyridine-3-carboxamide] was tested. Which pIC50 did it give?
A: ≥ 8.00

Q: With Cc1c(Nc2cc[nH]c(=O)c2C(=O)Nc2ccc(N3CCC(N4CCN(C(C)C)CC4)CC3)c(F)c2)cnc2c1NCC(C)O2 (stereo not shown) [Example 326, 4-((3,8-dimethyl-2,3-dihydro-1H-pyrido[2,3-b][1,4]oxazin-7-yl)amino)-N-(3-fluoro-4-(4-(4-isopropylpiperazin-1-yl)piperidin-1-yl)phenyl)-2-oxo-1,2-dihydropyridine-3-carboxamide] as the compound, how does the pIC50 read?
A: ≥ 8.00

Q: How did the pIC50 turn out when Cc1c(Nc2cc[nH]c(=O)c2C(=O)Nc2ccc3c(c2)NCCO3)cnc2c1NCCO2 [Example 240, N-(3,4-dihydro-2H-benzo[b][1,4]oxazin-6-yl)-4-((8-methyl-2,3-dihydro-1H-pyrido[2,3-b][1,4]oxazin-7-yl)amino)-2-oxo-1,2-dihydropyridine-3-carboxamide] was run?
A: 7.00 to 8.00

Q: With Cc1c(Nc2cc[nH]c(=O)c2C(=O)Nc2ccc(N3CCC(C(C)(C)O)CC3)cc2)cnc2c1NCCO2 [Example 300, N-(4-(4-(2-hydroxypropan-2-yl)piperidin-1-yl)phenyl)-4-((8-methyl-2,3-dihydro-1H-pyrido[2,3-b][1,4]oxazin-7-yl)amino)-2-oxo-1,2-dihydropyridine-3-carboxamide] as the compound, how does the pIC50 read?
A: ≥ 8.00

Q: How did the pIC50 turn out when Cc1c(Nc2cc[nH]c(=O)c2C(=O)Nc2ccc3c(c2)NCCC3)cnc2c1NCCO2 [Example 246, 4-((8-methyl-2,3-dihydro-1H-pyrido[2,3-b][1,4]oxazin-7-yl)amino)-2-oxo-N-(1,2,3,4-tetrahydroquinolin-7-yl)-1,2-dihydropyridine-3-carboxamide] was run?
A: 7.00 to 8.00

Q: Cc1c(Nc2cc[nH]c(=O)c2C(=O)Nc2ccc3c(c2)NC(=O)CO3)cnc2c1NCCO2 [Example 221, 4-((8-methyl-2,3-dihydro-1H-pyrido[2,3-b][1,4]oxazin-7-yl)amino)-2-oxo-N-(3-oxo-3,4-dihydro-2H-benzo[b][1,4]oxazin-6-yl)-1,2-dihydropyridine-3-carboxamide] was tested. Which pIC50 did it give?
A: 6.00 to 7.00

Q: COCCN(C)C(=O)N1CCN(c2ccc(NC(=O)c3c(Nc4cnc5c(c4C)NCCO5)cc[nH]c3=O)cc2)CC1 [Example 290, N-(2-methoxyethyl)-N-methyl-4-(4-(4-((8-methyl-2,3-dihydro-1H-pyrido[2,3-b][1,4]oxazin-7-yl)amino)-2-oxo-1,2-dihydropyridine-3-carboxamido)phenyl)piperazine-1-carboxamide] was tested. Which pIC50 did it give?
A: ≥ 8.00

Q: Cc1c(Nc2cc[nH]c(=O)c2C(=O)Nc2ccc(N3CCN(C4CCCC4)CC3)c(F)c2)cnc2c1NCCO2 [Example 259, N-(4-(4-cyclopentylpiperazin-1-yl)-3-fluorophenyl)-4-((8-methyl-2,3-dihydro-1H-pyrido[2,3-b][1,4]oxazin-7-yl)amino)-2-oxo-1,2-dihydropyridine-3-carboxamide] was tested. Which pIC50 did it give?
A: ≥ 8.00

Q: Cc1c(Nc2cc[nH]c(=O)c2C(=O)Nc2ccc(N3CCN(CC(C)C)CC3)cc2)cnc2c1NCCO2 [Example 370, N-(4-(4-isobutylpiperazin-1-yl)phenyl)-4-((8-methyl-2,3-dihydro-1H-pyrido[2,3-b][1,4]oxazin-7-yl)amino)-2-oxo-1,2-dihydropyridine-3-carboxamide] was tested. Which pIC50 did it give?
A: ≥ 8.00

Q: With Cc1cc(N2CCN(c3ccc(NC(=O)c4c(Nc5cnc6c(c5C)NCCO6)cc[nH]c4=O)cc3)CC2)ccn1 [Example 340, 4-((8-methyl-2,3-dihydro-1H-pyrido[2,3-b][1,4]oxazin-7-yl)amino)-N-(4-(4-(2-methylpyridin-4-yl)piperazin-1-yl)phenyl)-2-oxo-1,2-dihydropyridine-3-carboxamide] as the compound, how does the pIC50 read?
A: ≥ 8.00

Q: How did the pIC50 turn out when COC(C)CN1CCN(c2ccc(NC(=O)c3c(Nc4cnc5c(c4C)NCCO5)cc[nH]c3=O)cc2)CC1 (stereo not shown) [Example 369, N-(4-(4-(2-methoxypropyl)piperazin-1-yl)phenyl)-4-((8-methyl-2,3-dihydro-1H-pyrido[2,3-b][1,4]oxazin-7-yl)amino)-2-oxo-1,2-dihydropyridine-3-carboxamide] was run?
A: 7.00 to 8.00

Q: With Cc1c(Nc2cc[nH]c(=O)c2C(=O)Nc2ccc3c(c2)N(C)C(=O)CO3)cnc2c1NCCO2 [Example 239, 4-((8-methyl-2,3-dihydro-1H-pyrido[2,3-b][1,4]oxazin-7-yl)amino)-N-(4-methyl-3-oxo-3,4-dihydro-2H-benzo[b][1,4]oxazin-6-yl)-2-oxo-1,2-dihydropyridine-3-carboxamide] as the compound, how does the pIC50 read?
A: 6.00 to 7.00

Q: Cc1c(Nc2cc[nH]c(=O)c2C(=O)Nc2ccc(N3CCN(C)CC3)cc2)cnc2c1NCC(C)O2 (stereo not shown) [Example 164, 4-((3,8-dimethyl-2,3-dihydro-1H-pyrido[2,3-b][1,4]oxazin-7-yl)amino)-N-(4-(4-methylpiperazin-1-yl)phenyl)-2-oxo-1,2-dihydropyridine-3-carboxamide] was tested. Which pIC50 did it give?
A: 7.00 to 8.00

Q: How did the pIC50 turn out when Cc1c(Nc2cc[nH]c(=O)c2C(=O)Nc2ccc(N3CCC(C)(CO)CC3)cc2)cnc2c1NCCO2 [Example 301, N-(4-(4-(hydroxymethyl)-4-methylpiperidin-1-yl)phenyl)-4-((8-methyl-2,3-dihydro-1H-pyrido[2,3-b][1,4]oxazin-7-yl)amino)-2-oxo-1,2-dihydropyridine-3-carboxamide] was run?
A: 7.00 to 8.00

Q: Cc1c(Nc2cc[nH]c(=O)c2C(=O)Nc2cccc(S(=O)(=O)CCO)c2)cnc2c1NCCO2 [Example 245, N-(3-((2-hydroxyethyl)sulfonyl)phenyl)-4-((8-methyl-2,3-dihydro-1H-pyrido[2,3-b][1,4]oxazin-7-yl)amino)-2-oxo-1,2-dihydropyridine-3-carboxamide] was tested. Which pIC50 did it give?
A: 6.00 to 7.00
